Reference: paper PMC6895048, “4,5-Disubstituted 1,2,3-triazoles: Effective Inhibition of Indoleamine 2,3-Dioxygenase 1 Enzyme Regulates T cell Activity and Mitigates Tumor Growth” (Scientific Reports, 2019)

Tests used:
IDO1 [1] = conditions: cited from earlier work
IDO1 [2] = conditions: cited from earlier work; remark: listed apart in the source
[3] = cited from earlier work
[4] = target: T1, purified human IDO1 enzyme (Homo sapiens, UniProt P14902); assay: IDO1 inhibition assay by the spectrometric method (pDMAB); type: biochemical; conditions: purified human IDO1; spectrophotometric; mean of three independent assays; read-out: hIDO1 IC50
T1 construct: made in house; host or cells: Escherichia coli M15 (pQE30 vector with pREP4 plasmid)
T1 sequence (P14902 whole entry): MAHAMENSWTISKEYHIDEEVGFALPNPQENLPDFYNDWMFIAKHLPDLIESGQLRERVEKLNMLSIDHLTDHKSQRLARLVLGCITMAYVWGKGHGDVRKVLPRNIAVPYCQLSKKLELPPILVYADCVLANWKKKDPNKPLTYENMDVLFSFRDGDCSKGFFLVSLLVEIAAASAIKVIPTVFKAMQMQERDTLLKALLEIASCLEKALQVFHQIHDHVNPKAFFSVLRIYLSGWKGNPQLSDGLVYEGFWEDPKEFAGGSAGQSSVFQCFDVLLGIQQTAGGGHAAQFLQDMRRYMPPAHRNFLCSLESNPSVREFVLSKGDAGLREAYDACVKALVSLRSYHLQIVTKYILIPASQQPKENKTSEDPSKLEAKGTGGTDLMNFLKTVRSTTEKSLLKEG
Protocol: Both IDO1 and TDO inhibition assays were performed according to the reported procedures[26]–[30],[50],[51]. […] In the assay system, the minimum and maximum amount of DMSO was 0.02% and 2%, respectively. […] The concentration of the inhibitors was varied from 100 µM to 32 nM by serial dilution technique. Then, the reaction was quenched with 100 µL of 30% (w/v) trichloroacetic acid and was incubated for further 15 minutes at 65 °C. After that, 2% (w/v) pDMAB was used to quantify the amount of kynurenine formation. The absorbance of the reaction mixture was recorded by UV-Vis spectrophotometer at 480 nm.

[5] = target: T2, purified human TDO enzyme (Homo sapiens, UniProt P48775); assay: TDO inhibition assay by the spectrometric method; type: biochemical; conditions: spectrophotometric
T2 construct: 6xHis (N); made in house; host or cells: Escherichia coli BL21 (DE3) (pET 28a vector)
T2 sequence (P48775 whole entry): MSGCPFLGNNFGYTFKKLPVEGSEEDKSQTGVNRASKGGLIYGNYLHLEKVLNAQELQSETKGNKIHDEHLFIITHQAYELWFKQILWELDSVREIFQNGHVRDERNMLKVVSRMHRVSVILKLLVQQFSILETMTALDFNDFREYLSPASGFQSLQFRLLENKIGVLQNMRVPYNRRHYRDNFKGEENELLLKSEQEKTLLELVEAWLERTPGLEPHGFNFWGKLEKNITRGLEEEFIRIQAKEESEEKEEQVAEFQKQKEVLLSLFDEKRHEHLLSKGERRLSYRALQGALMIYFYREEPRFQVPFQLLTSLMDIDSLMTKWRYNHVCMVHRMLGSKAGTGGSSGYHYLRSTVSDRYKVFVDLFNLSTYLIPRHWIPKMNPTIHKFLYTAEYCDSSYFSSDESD
Protocol: Both IDO1 and TDO inhibition assays were performed according to the reported procedures[26]–[30],[50],[51]. The solubility of the compounds in water was either moderate or poor. […] In the assay system, the minimum and maximum amount of DMSO was 0.02% and 2%, respectively. The standard reaction mixture (500 μL) containing KPB (100 mM, pH 6.5 for IDO1 enzyme and 50 mM, pH 8.0 for TDO enzyme), sodium ascorbate (20 mM), methylene blue (10 µM), catalase (240 nM, from bovine liver), L-Trp (150 µM), purified enzyme (40 nM for IDO1 and 25 nM for TDO), DMSO (0.05%, v/v), Triton-X 100 (0.01%, v/v) and inhibitors was incubated at 37 °C for 1 hour. The concentration of the inhibitors was varied from 100 µM to 32 nM by serial dilution technique. Then, the reaction was quenched with 100 µL of 30% (w/v) trichloroacetic acid and was incubated for further 15 minutes at 65 °C. After that, 2% (w/v) pDMAB was used to quantify the amount of kynurenine formation. The absorbance of the reaction mixture was recorded by UV-Vis spectrophotometer at 480 nm. The Km = 59.76 µM and Kcat = 6.18 sec^−1.

TDO enzyme = target: T3, TDO enzyme (Homo sapiens, UniProt P48775); assay: HPLC based TDO inhibition assay; type: biochemical
T3 construct: 6xHis (N); made in house; host or cells: Escherichia coli BL21 (DE3) (pET 28a vector)
T3 sequence (P48775 whole entry): as above
Protocol: (§1) HPLC based IDO1, and TDO inhibition assays were performed according to the earlier reported procedure[19],[27]–[30]. The reaction mixture (250 µL) contained KPB (100 mM, pH 6.5 for IDO1 and 50 mM, pH 8.0 for TDO), sodium ascorbate (20 mM), methylene blue (10 µM), catalase (240 nM, from bovine liver, Sigma), L-Trp (150 µM), purified enzyme (40 nM for IDO1 and 25 nM for TDO), DMSO (0.05%, v/v), Triton-X 100 (0.01%, v/v) and inhibitors. The concentration of the compound was varied from 100 µM to 32 nM by serial dilution. The mixture was incubated at 37 °C for 1 hour in the absence and presence of the synthesized compounds. The reaction was then quenched using 50 µL of 30% (w/v) trichloroacetic acid and incubated at 65 °C for additional 15 minutes to allow complete hydrolysis of N-formylkynurenine to kynurenine. After that, the mixture was centrifuged at 10,000 rpm for 10 minutes, and 100 µL of clear solution was transferred to another tube for HPLC analysis. Then, 20 µL of the reaction mixture was then injected through Ascentis® express C18, 2.7 µm HPLC column with a flow rate of 0.5 mL/minute of the mobile phase containing 50% sodium citrate buffer (40 mM, pH 2.25) and 50% methanol (v/v) with 400 µM SDS. The area under the curve at 365 nm chromatogram corresponding to the kynurenine formation was recorded, and % of inhibition was calculated using standard curve prepared with pure kynurenine (from Sigma) under similar experimental conditions.

IDO1 [6] = target: T4, IDO1 (Homo sapiens, UniProt P14902); assay: Kynurenine assay by HPLC analysis, IDO1; type: biochemical; set-up: made in house; host or cells: Escherichia coli M15 (pQE30 vector with pREP4 plasmid); conditions: for IC50: HPLC based IDO1 inhibition assay; for % Of inhibition for IDO1 enzyme: HPLC
T4 sequence (P14902 whole entry): as the sequence (P14902 whole entry) above
Protocol: as §1

IDO1 [7] = target: T4, IDO1; assay: Cellular IDO1 activity assay in IFN-γ induced MDA-MB-231 cells; type: cell-based; set-up: induce the expression of the native IDO1 enzyme from its mRNA in the MDA-MB-231 cells; endogenous in cells; host or cells: MDA-MB-231 cells induced with human IFN-γ (50 ng/mL); conditions: IDO1 expression induced by human IFN-γ (50 ng/mL); mean of three
Protocol: The cellular enzyme activity assay was performed according to the reported procedure with minor modifications[19],[27]–[30],[33],[54]. Briefly, MDA-MB-231 breast cancer cells were selected for this assay because of the presence of IDO1 mRNA in this cell line. First, cells were grown in DMEM/F12 complete media overnight. Then different concentration of human interferon-gamma (IFN-γ) (from 5–1000 ng/mL) was added to it and incubated for 48 hours. This treatment is reported to allow over-expression of IDO1 enzyme in MDA-MB-231 cells. […] Sterile cell-culture grade PBS was used to wash the cells by centrifugation technique. Then, the pellet was lysed in 10 mM HEPES buffer by passing through a sterile syringe. The lysate was used for standard IDO1 assay as mentioned earlier. The relative amount of N-formylkynurenine generated in the presence of the different concentration of IFN-γ was used to optimize the required concentration of IFN-γ for the IDO1 inhibition assay. […] Cells stimulated with IFN-γ alone were used as negative control, while cells stimulated with L-Trp without compound served as positive control. The cells were washed with sterile cell culture grade PBS and lysed in 10 mM HEPES buffer by sterile syringe. The lysate was used for standard IDO1 assay, as mentioned earlier, and the extent of IDO1 enzyme inhibition was determined for the selected compounds.

Row | Compound | IC50 [4] | % of Enzyme inhibition (TDO) ([5]; 32 nM) | % of Enzyme inhibition (TDO) ([5]; 160 nM) | % of Enzyme inhibition (TDO) ([5]; 800 nM) | % of Enzyme inhibition (TDO) ([5]; 4 µM) | % of Enzyme inhibition (TDO) ([5]; 20 µM) | % of Enzyme inhibition (TDO) ([5]; 100 µM) | % Of inhibition for TDO enzyme (TDO enzyme; 32 nM) | % Of inhibition for TDO enzyme (TDO enzyme; 160 nM) | % Of inhibition for TDO enzyme (TDO enzyme; 800 nM) | % Of inhibition for TDO enzyme (TDO enzyme; 4 µM) | % Of inhibition for TDO enzyme (TDO enzyme; 20 µM) | % Of inhibition for TDO enzyme (TDO enzyme; 100 µM) | IC50 (IDO1 [6]) | % Of inhibition for IDO1 enzyme (IDO1 [6]; 32 nM) | % Of inhibition for IDO1 enzyme (IDO1 [6]; 160 nM) | % Of inhibition for IDO1 enzyme (IDO1 [6]; 800 nM) | % Of inhibition for IDO1 enzyme (IDO1 [6]; 4 µM) | % Of inhibition for IDO1 enzyme (IDO1 [6]; 20 µM) | % Of inhibition for IDO1 enzyme (IDO1 [6]; 100 µM) | other results
1 | Oc1ccc(Cl)cc1-c1cnn[nH]1 [MMG-0358, 4-chloro-2-(1H-1,2,3-triazol-5-yl)phenol] |  |  |  |  |  |  |  |  |  |  |  |  |  |  |  |  |  |  |  |  | IDO1 inhibitory activities, enzymatic assay (IDO1 [1]): nanomolar-level; IDO1 inhibitory activities, cellular assay (IDO1 [2]): nanomolar-level; cytotoxicity [3]: low cytotoxicity
2 | O=C(O)c1n[nH]nc1-c1ccc(F)c(F)c1 [Compound 4a] | 17400 ± 918 nM | 4% | 8% | 16% | 18% | 22% | 30% | 6% | 18% | 26% | 38% | 41% | 54% | 8944 ± 87 nM | 11% | 13% | 29% | 30% | 57% | 65% | EC50 (IDO1 [7]): 1230 ± 21 nM
3 | CCOC(=O)c1n[nH]nc1-c1ccc(Cl)c(Cl)c1 [Compound 2j] | 163 ± 25 nM | 8% | 12% | 25% | 30% | 44% | 53% | 1% | 35% | 36% | 49% | 41% | 43% | 257 ± 9 nM | 24% | 31% | 52% | 65% | 77% | 77% | EC50 (IDO1 [7]): 160 ± 7 nM
4 | CCc1ccccc1Nc1cnn[nH]1 [N-(2-Ethylphenyl)-1H-1,2,3-triazol-5-amine] |  |  |  |  |  |  |  |  |  |  |  |  |  |  |  |  |  |  |  |  | cellular IDO1 inhibitory activities (IDO1 [2]): nanomolar-level
5 | NC(=O)c1n[nH]nc1-c1ccc(Cl)c(Cl)c1 [Compound 3j] | 69 ± 4 nM | 6% | 9% | 20% | 27% | 32% | 60% | 33% | 39% | 42% | 47% | 51% | 51% | 99 ± 24 nM | 39% | 60% | 70% | 88% | 89% | 89% | EC50 (IDO1 [7]): 53 ± 4 nM
